Here are results for one compound from PMC11173382, “In Vitro Investigations into the Potential Drug Interactions of Pseudoginsenoside DQ Mediated by Cytochrome P450 and Human Drug Transporters” (Molecules, 2024).

SMILES strings stand for the structures.

This assay has as its target T1, hOCT2 (Homo sapiens, UniProt O15244).
T1 construct: host or cells: S2-OCT2
T1 sequence (O15244 1-555): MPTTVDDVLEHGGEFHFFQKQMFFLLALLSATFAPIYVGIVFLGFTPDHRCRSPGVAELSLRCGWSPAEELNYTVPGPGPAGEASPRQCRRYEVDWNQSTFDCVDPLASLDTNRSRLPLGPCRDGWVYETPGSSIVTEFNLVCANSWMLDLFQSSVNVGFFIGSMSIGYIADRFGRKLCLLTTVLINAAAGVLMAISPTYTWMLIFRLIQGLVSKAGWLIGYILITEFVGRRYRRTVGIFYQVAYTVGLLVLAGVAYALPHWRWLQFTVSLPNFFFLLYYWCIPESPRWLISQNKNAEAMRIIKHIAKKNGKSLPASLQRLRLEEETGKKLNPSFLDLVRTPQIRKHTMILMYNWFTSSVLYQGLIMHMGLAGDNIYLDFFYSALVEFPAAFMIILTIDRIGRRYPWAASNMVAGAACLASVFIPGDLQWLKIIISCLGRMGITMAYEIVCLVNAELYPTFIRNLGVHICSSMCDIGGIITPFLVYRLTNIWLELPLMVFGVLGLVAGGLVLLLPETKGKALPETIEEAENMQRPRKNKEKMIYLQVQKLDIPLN
Description: Substrates uptake assay, S2-OCT2 cells (14C-TEA). Type of assay: in vitro ADME. The note with it: for Transport activity of OCT2 (main text: percentage inhibition): negative control = 100%. The source says: Drug transporters mediate the cellular uptake and efflux of their substrates. Therefore, cell lines overexpressing a drug transporter can be utilized to investigate inhibitors of the transporter by assessing changes in substrate uptake. For each drug transporter, we selected a well-characterized inhibitor as the positive control. Radiolabeled substrates were used to indicate the decrease in transport efficiency when the drug transporters were inhibited by PDQ or the control inhibitors.
The concentrations of the control drugs and the substrates were stated in the assay details. Working solutions of the control inhibitors, the radiolabeled substrates, and each dose of PDQ were prepared at 200 times (200×) more concentrated solutions with DMSO for further dilution.
Transporter-overexpressed cell lines. Human organic anion transporter-overexpressed cell lines MDCKII-OAT1 and S2-OAT3, human organic anion transport polypeptide-overexpressed cell lines HEK293A-OATP1B1 and HEK293A-OATP1B3, human organic cation transporter 2-overexpressed cell line S2-OCT2, and human multi-drug resistance protein MDR1 (or P-gp)-overexpressed cell line MDCKII-MDR1 were gifts from Japan Fuji Biomedical Co., Ltd. (Fuji, Shizuoka Prefecture, Japan). Breast cancer resistance protein-overexpressed vesicles (sf9-BCRP vesicle) were purchased from GenoMembrane Co., Ltd. (Yokohama, Kanagawa, Japan).
Substrates uptake assay. In this assay, we studied the inhibition of PDQ against transporters OAT1, OAT3, OCT2, OATP1B1 and OATP1B3 with MDCKII-OAT1, S2-OAT3, S2-OCT2, HEK293A-OATP1B1and HEK293A-OATP1B3 cells, respectively. The radiolabeled substrates for OAT1, OAT3, OATP1B1, OATP1B3 and OCT2 were […], respectively (Table 5). Probenecid ([…]) was the positive control inhibitor of OAT1 and OAT3, while rifampicin ([…]) served as the control drug of OATP1B1 and OATP1B3. For OCT2, we used […] cimetidine to compare with the inhibitory effect of PDQ. Two times (2×) more concentrated working solutions of the drugs and the substrate were prepared with Dulbecco’s phosphate-buffered saline (DPBS, Gibco, Grand Island, NY, USA.). Then, an equal volume of 2× drug solution and 2× radiolabeled substrate solution were mixed as the working mix. All reagents were pre-warmed to 37 °C.
The cells were digested with 0.05% trypsin/EDTA. The density of the single-cell suspension was adjusted to 2.0 × 10^5 cells/mL for S2 cells and to 1.5 × 10^5 cells/mL for MDCK II and HEK293A cells. The cell suspension was then added to the reservoirs of the 24-well plate for culture until full confluency. The medium in the wells was removed, and the wells were washed with DPBS. Then, the plate was incubated for 10 min with pre-warmed DPBS in the wells. After removing DPBS, […] of working mix was added to each well to initiate the substrate uptake process. The reaction time was 5 min for S2-OCT2 cells, while the other four types of cells were incubated with the reaction mix for 2 min. Cold DPBS was used to terminate the substrate transportation. To each well, […] NaOH ([…]) was added to lyse the cells. Then, […] cell lysate was transferred to the counting vials, and 3 mL scintillation cocktail (Aquasol-2, PerkinElmer, Waltham, MA, USA) was added. […] Each sample was replicated three times (N = 3).
In = [100 × (U − U0)/(Uc − U0)]%(3)
The results were expressed as mean ± standard deviation (SD) and analyzed with GraphPad Prism 8.0 software (CA, USA). The IC50 of PDQ was curve-fitted with the FORECAST function. Statistical significance was calculated using a two-tailed test, and a p value < 0.05 was considered as significant.

Consider `CC(C)(O)[C@@H]1CC[C@@](C)([C@H]2CC[C@]3(C)[C@@H]2[C@H](O)C[C@@H]2[C@@]4(C)CC[C@H](O)C(C)(C)[C@@H]4CC[C@]23C)O1` [PDQ, (20S,24S)-dammar-20,24-epoxy-3β, 12β, 25-triol], for which the “DPM (14C-TEA uptake by OCT2)” value (inhibitor 0.1 μM) is recorded as 994.3±112.3 DPM; the “DPM (14C-TEA uptake by OCT2)” value (inhibitor 0.3 μM) amounted to 741.3±35.0 DPM; the “DPM (14C-TEA uptake by OCT2)” value (inhibitor 1 μM) is listed as 712.3±115.3 DPM; the “DPM (14C-TEA uptake by OCT2)” value (inhibitor 3 μM) came to 661.7±93.5 DPM; the “DPM (14C-TEA uptake by OCT2)” value (inhibitor 10 μM) is on record as 612.0±28.7 DPM; the “DPM (14C-TEA uptake by OCT2)” value (inhibitor 30 μM) came to 578.0±29.5 DPM. For the same compound, the “Transport activity of OCT2 (main text: percentage inhibition)” value turned out to be 101.6±11.5% (inhibitor 0.1 μM); 75.8±3.6% (inhibitor 0.3 μM); 72.8±11.8% (inhibitor 1 μM); 67.6±9.6% (inhibitor 3 μM); 62.6±2.9% (inhibitor 10 μM).
